Laboratory results taken from patent US7589125B2, “2,4-dihydroxybenzoic acid derivatives” (Palau Pharma, S.A., priority 2002, dated 2009).
Each block holds one compound with its values, some of them ahead of it.

Assays:
[1] = target: farnesyltransferase (Homo sapiens, UniProt P49356); details: Hardcastle et al, Tetrahedron Letters 2001, 42(7), 1363-1365; cited from earlier work
[2] = system: human umbilical vein endothelial cells (HUVEC); assay: Cell viability in human non-proliferating cells (HUVEC); type: cell-based; details: concentrations up to 500 μM, 72 h of incubation
[3] = system: Male Swiss mice; assay: Test 1 - Oxazolone-induced delayed hypersensitivity in mice (ear edema); type: in vivo; details: topical on right ear, solution in acetone; FIG. 1
Method: Test 1—Oxazolone-induced Delayed Hipersensitivity in Mice
Method: Male Swiss mice (25-30 g body weight) were sensitized by the application of a 2% solution of oxazolone (Sigma) in acetone (50 μL) into the shaved abdomen. Seven days later, 25 μL of a 1.5% solution of oxazolone was applied on both surfaces of the right ear of the animals. The left ear served as control and was only treated with the vehicle (acetone). 20 μL of the test compound (dissolved in acetone) or vehicle alone (control) was applied on both sides of the right ear, 24 h before challenge and 1 and 5 h after challenge. To evaluate the edema, mice were killed (by CO2 inhalation) and an 8 mm disc was excised from the right and left ears. The edema was measured by the difference in weight between the two ears and inhibition was expressed as percentage in relation to the control group.

[4] = system: immune-deficient BNX mice transplanted with human psoriatic skin; assay: Test 2 - Psoriasis model in immune-deficient BNX mice transplanted with human psoriatic skin; type: in vivo; details: topical ointment at the concentration of 0.1%; p<0.01
Description: Test 2—Psoriasis Model in Immune-deficient BNX Mice Transplanted with Human Psoriatic Skin
Method: The goal of this study is to assess the effect of the test compounds on the development of a psoriatic lesion, induced by super-antigen-activated human peripheral blood T-cells, in non-lesional skin from a psoriasis patient transplanted onto immune-deficient BNX mice. Mice (male/female, circa 20 g, 5 mice per group) were transplanted with non-lesional skin biopsies from psoriasis patients. Peripheral blood mononuclear cells from the same patients were isolated and stored in freezer until further use. Transplants were allowed to “lake” for 4 weeks. After this period, transplants were treated topically with test compound or control (vehicle) preparations for 1 week. Then, peripheral blood mononuclear cells from psoriatic patients, previously activated in vitro for 2 days with super-antigen, were injected into the transplants intra-dermally. Transplants were treated with test compound or control preparations for two additional weeks. Transplants were then harvested and epidermal thickness was measured by using computer-aided morphometric analysis.

[5] = system: splenic lymphocytes from C57BL/6 mice stimulated with splenic lymphocytes from CBA mice; assay: Test 4 - Immunosuppression model: murine mixed lymphocyte reaction; type: cell-based
Method: Test 4—Immunosupression Model: Murine Mixed Lymphocyte Reaction
Method: Immunosuppression was assessed by testing the effects of the compounds on the proliferation of splenic lymphocytes from C57BL/6 mice strain stimulated with splenic lymphocytes from CBA mice strain. Splenic lymphocyte populations were isolated from two mouse strains: CBA (acting as stimulating cells) and C57BL/6 (acting as proliferating cells). Homogenized mouse spleen was filtered and subsequently centrifuged at 250×g for 5 minutes at 4° C. The pellets were resuspended in culture medium (RPMI 1640 supplemented with 5% fetal calf serum and 2% antibiotics) and after repeating this process twice they were adjusted to a final density of 5×10^6 cells/mL. The isolated lymphocytes from CBA strain were treated with mitomycin C to block their proliferation.
In a 96-well plate, solutions of the test compounds or culture medium alone (for the control) were distributed. Next, 5×10^5 C57BL/6 cells and 2.5×10^5 CBA cells were added and incubated for 48 h (37° C., 5% CO2). After this preincubation 1 μCi of [^3H]-thymidine and 0.2 mM unlabeled thymidine were added to each well and the mixture was incubated 24 h. […]
Lymphocyte proliferation was measured as [^3H]-thymidine incorporation into the DNA of responding cells (C57BL/6) using a liquid scintillation counter (LS series, Beckman).

[6] = system: hamster lung fibroblast cell line (V79 cells); assay: Test 5 - Induction of apoptosis in tumor cells (active caspase-3, flow cytometry); type: cell-based
Method: Test 5: Induction of Apoptosis in Tumor Cells
Method: The ability of the compounds of the invention to induce apoptosis was determined in a hamster lung fibroblast cell line (V79 cells). To determine the induction of apoptosis a commercially available kit was used (CaspaTag™ Caspase-3 (DEVD) Activity Kit, Intergen); this kit detects the presence in the cells of the active form of the enzyme caspase-3, which is an apoptosis marker. V79 cells were incubated for 72 h in culture medium (DMEM supplemented with 2 mM Glutamine and 10% fetal calf serum) in the presence of test compound (30 and 100 μM; solution in phosphate-buffered saline) or vehicle. Next, cells were washed with phosphate-buffered saline, treated with Trypsin-EDTA solution until the cell layer was dispersed and were resuspended in fresh growth medium at a concentration of 10^6 cells/mL. A 300 μL aliquote of each of the samples was transferred to a tube and was incubated with the irreversible, carboxyfluorescein-labeled peptidic caspase-3 inhibitor FAM-DEVD-FMK for 1 hour at 37° C. in 5% CO2 and protecting the tubes from light following the kit's instructions. […] The inhibitor in excess was washed and the cells were then analyzed by flow cytometry at 488 nm.

[7] = system: human peripheral blood mononuclear cells (PBMC); assay: Cell viability in human non-proliferating cells (PBMC); type: cell-based; details: concentrations up to 500 μM, 72 h of incubation
[8] = system: Male Lewis rats; assay: Test 3 - Inhibition of adjuvant-induced arthritis in the rat; type: in vivo; details: 10 mg/kg/day p.o. for 28 days
Method: Test 3—Inhibition of Adjuvant-induced Arthritis in the Rat
Method: Male Lewis rats with body weight between 140 and 170 g and 7 week-old were used. Before the start of the study animals were acclimated for a period of at least 5 days. Animals were fasted for 18 hours before the study, with water ad libitum. Throughout the study, animals were allowed free access to drinking water, except during observation periods.
Groups of five animals were randomized (Sham, Control and Test compound). The duration of the study was 28 days. Arthritis was induced on day 1 of the study by a single subplantar injection of 0.1 mL of an emulsion prepared with 10 mg Mycobacterium butyricum and 10 mL Freund's incomplete adjuvant (Difco) to the right hindpaw of the animals from the Control (C) and Test compound (T) groups. Sham animals (S) received 0.1 mL Freund's incomplete adjuvant. Test compound was administered daily from day 1 of the study until day 28 at a dose of 10 mg/kg p.o. as a suspension in 1% Tween 80® while the Control group only received the vehicle. On day 28 of the development of arthritis, the volume of the left paw (secondary edema) was determined using a UGO BASILE 7150 plethysmometer. The inhibition of the increase in volume was calculated as follows: % Inh.=100−((T−S)/(C−S))*100 Where: T=Test compound group; C=Control group; and S=Sham group

Sequence of farnesyltransferase (P49356 whole entry): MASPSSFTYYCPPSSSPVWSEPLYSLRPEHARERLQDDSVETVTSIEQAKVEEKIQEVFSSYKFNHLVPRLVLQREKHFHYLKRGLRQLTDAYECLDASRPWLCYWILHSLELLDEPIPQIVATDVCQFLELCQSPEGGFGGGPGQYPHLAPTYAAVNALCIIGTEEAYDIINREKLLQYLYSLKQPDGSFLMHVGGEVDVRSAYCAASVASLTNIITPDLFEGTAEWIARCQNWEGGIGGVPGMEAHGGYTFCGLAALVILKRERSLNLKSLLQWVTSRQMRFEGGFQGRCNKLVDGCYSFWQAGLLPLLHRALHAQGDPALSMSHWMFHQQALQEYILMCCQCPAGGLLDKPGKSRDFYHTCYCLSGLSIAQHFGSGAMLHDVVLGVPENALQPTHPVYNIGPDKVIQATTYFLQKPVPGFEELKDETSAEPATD

SMILES: O=C(O)c1c(O)c(F)c(OCCCF)c(F)c1F [2,3,5-trifluoro-4-(3-fluoropropoxy)-6-hydroxybenzoic acid]
farnesyltransferase inhibition [1]: inactive

melting point: 64 °C
SMILES: COC(=O)c1ccc(OCCF)cc1O [Example 4, Methyl 2-hydroxy-4-(2-fluoroethoxy)benzoate]

SMILES: O=C(O)c1ccc(OCC(F)(F)C(F)(F)F)cc1O [Example 6, 2-Hydroxy-4-(2,2,3,3,3-pentafluoropropoxy)benzoic acid]
cell viability [2]: not to affect cell viability
inhibition of the edema (difference in weight between the two ears) [3]: concentration-dependent inhibition of the edema
inhibition of the increase of the epidermal thickness induced by intradermal injection of activated mononuclear cells [4]: significant inhibition
inhibition of mice splenic lymphocyte proliferation ([3H]-thymidine incorporation) ([5]; 300 μM): completely inhibited
inhibition at 100 µM ([5]; Mus musculus, Splenic lymphocyte, 100 μM, read-out: inhibition of the proliferation of mice splenic lymphocytes): 60%
number of cells containing the active form of caspase-3 (apoptotic cells) ([6]; 30 and 100 μM, 72 h incubation, FIG. 2): concentration-dependent increase
morphological observation of the cells (activation of apoptosis) ([6]; V79 cells): presence of cell membrane blebbing and the formation of apoptotic bodies
cell viability [7]: not to affect cell viability
inhibition of the increase in volume of the left paw (secondary edema) [8]: significant inhibition
